In the supplement of paper PMC10307832:

Columns and labels:
Test in all cases: relative viability (nuclei count vs DMSO), 5 days (fraction); higher = more cells survive
Dinaciclib + Olaparib = compound: CCc1cnn2c(NCc3ccc[n+]([O-])c3)cc(N3CCCC[C@H]3CCO)nc12 [Dinaciclib] + O=C(c1cc(Cc2n[nH]c(=O)c3ccccc23)ccc1F)N1CCN(C(=O)C2CC2)CC1 [Olaparib] (partner 8 µM)
Summary of the method: (§1)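 A single step with final 0.05% Triton X-100, 1% formaldehyde and 1 ug/ml Hoechst fixed the cells and stained nuclei 5 days after treatment. Lung cancer cell lines in 1536-well plates had been treated by pin tool the day after seeding with one drug alone or a fixed anchor-drug dose plus five library-drug doses (not always all listed) in √10 steps, and nuclei were counted on 4× images. Relative viability is the ratio of nuclei in treated wells to nuclei in vehicle wells, taken as the median of duplicate plates.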

Dinaciclib + Pemetrexed = compound: CCc1cnn2c(NCc3ccc[n+]([O-])c3)cc(N3CCCC[C@H]3CCO)nc12 [Dinaciclib] + Nc1nc2[nH]cc(CCc3ccc(C(=O)N[C@@H](CCC(=O)O)C(=O)O)cc3)c2c(=O)[nH]1 [Pemetrexed] (partner 0.2 µM)
Summary of the method: as §1

Dinaciclib + Palbociclib = compound: CCc1cnn2c(NCc3ccc[n+]([O-])c3)cc(N3CCCC[C@H]3CCO)nc12 [Dinaciclib] + CC(=O)c1c(C)c2cnc(Nc3ccc(N4CCNCC4)cn3)nc2n(C2CCCC2)c1=O [Palbociclib] (partner 0.5 µM)
Summary of the method: as §1

Dinaciclib + Phenformin = compound: CCc1cnn2c(NCc3ccc[n+]([O-])c3)cc(N3CCCC[C@H]3CCO)nc12 [Dinaciclib] + N=C(N)NC(=N)NCCc1ccccc1 [Phenformin] (partner 250 µM)
Summary of the method: as §1

Dinaciclib + Lapatinib = compound: CCc1cnn2c(NCc3ccc[n+]([O-])c3)cc(N3CCCC[C@H]3CCO)nc12 [Dinaciclib] + CS(=O)(=O)CCNCc1ccc(-c2ccc3ncnc(Nc4ccc(OCc5cccc(F)c5)c(Cl)c4)c3c2)o1 [Lapatinib] (partner 2 µM)
Summary of the method: as §1

| Cell Line | relative viability (Dinaciclib + Olaparib; first compound 0.009487 µM) | relative viability (Dinaciclib + Olaparib; first compound 0.03 µM) | relative viability (Dinaciclib + Olaparib; first compound 0.09487 µM) | relative viability (Dinaciclib + Olaparib; first compound 0.3 µM) | relative viability (Dinaciclib + Pemetrexed; first compound 0.009487 µM) | relative viability (Dinaciclib + Pemetrexed; first compound 0.03 µM) | relative viability (Dinaciclib + Pemetrexed; first compound 0.09487 µM) | relative viability (Dinaciclib + Pemetrexed; first compound 0.3 µM) | relative viability (Dinaciclib + Palbociclib; first compound 0.009487 µM) | relative viability (Dinaciclib + Palbociclib; first compound 0.03 µM) | relative viability (Dinaciclib + Palbociclib; first compound 0.09487 µM) | relative viability (Dinaciclib + Palbociclib; first compound 0.3 µM) | relative viability (Dinaciclib + Phenformin; first compound 0.009487 µM) | relative viability (Dinaciclib + Phenformin; first compound 0.03 µM) | relative viability (Dinaciclib + Phenformin; first compound 0.09487 µM) | relative viability (Dinaciclib + Phenformin; first compound 0.3 µM) | relative viability (Dinaciclib + Lapatinib; first compound 0.009487 µM) | relative viability (Dinaciclib + Lapatinib; first compound 0.03 µM) | relative viability (Dinaciclib + Lapatinib; first compound 0.09487 µM) | relative viability (Dinaciclib + Lapatinib; first compound 0.3 µM) |
| --- | --- | --- | --- | --- | --- | --- | --- | --- | --- | --- | --- | --- | --- | --- | --- | --- | --- | --- | --- | --- |
| LXF-289 | 1.01 | 0.103 | 0.0785 | 0.0985 | 0.815 | 0.254 | 0.0816 | 0.0773 | 0.598 | 0.213 | 0.0821 | 0.108 | 0.538 | 0.229 | 0.0748 | 0.0626 | 0.926 | 0.167 | 0.106 | 0.0884 |
| NCI-H23 | 0.206 | 0.12 | 0.0827 | 0.101 | 0.445 | 0.156 | 0.113 | 0.117 | 0.304 | 0.167 | 0.0992 | 0.103 | 0.807 | 0.31 | 0.114 | 0.116 | 0.31 | 0.128 | 0.12 | 0.129 |
| NCI-H322M | 0.652 | 0.304 | 0.328 | 0.321 | 0.569 | 0.326 | 0.313 | 0.343 | 0.441 | 0.392 | 0.373 | 0.384 | 0.41 | 0.315 | 0.244 | 0.267 | 0.637 | 0.325 | 0.243 | 0.201 |
| NCI-H358 | 0.552 | 0.0825 | 0.086 | 0.105 | 0.186 | 0.108 | 0.0948 | 0.0955 | 0.142 | 0.095 | 0.0882 | 0.096 | 0.268 | 0.078 | 0.0729 | 0.0856 | 0.341 | 0.216 | 0.196 | 0.188 |
| NCI-H460 | 0.409 | 0.0325 | 0.0396 | 0.0408 | 0.0617 | 0.0567 | 0.0208 | 0.017 | 0.0704 | 0.0127 | 0.0174 | 0.0151 | 0.296 | 0.0189 | 0.0192 | 0.0198 | 0.089 | 0.0117 | 0.011 | 0.0113 |
| NCI-H520 | 0.259 | 0.117 | 0.101 | 0.114 | 0.483 | 0.123 | 0.139 | 0.127 | 0.232 | 0.142 | 0.134 | 0.126 | 0.476 | 0.203 | 0.167 | 0.166 | 0.509 | 0.115 | 0.104 | 0.141 |
| NCI-H647 | 0.258 | 0.0359 | 0.0547 | 0.051 | 0.149 | 0.0819 | 0.0645 | 0.0608 | 0.18 | 0.111 | 0.0539 | 0.0401 | 0.302 | 0.0795 | 0.059 | 0.0723 | 0.31 | 0.0588 | 0.0482 | 0.0727 |
| NCI-H650 | 0.382 | 0.13 | 0.12 | 0.104 | 0.877 | 0.305 | 0.115 | 0.139 | 0.374 | 0.171 | 0.128 | 0.101 | 0.407 | 0.201 | 0.159 | 0.154 | 0.566 | 0.171 | 0.0978 | 0.146 |
| NCI-H661 | 0.664 | 0.227 | 0.148 | 0.147 | 0.798 | 0.365 | 0.214 | 0.151 | 0.431 | 0.188 | 0.14 | 0.153 | 0.192 | 0.209 | 0.185 | 0.185 | 0.41 | 0.183 | 0.181 | 0.191 |
| NCI-H838 | 0.431 | 0.101 | 0.0853 | 0.0924 | 0.262 | 0.13 | 0.12 | 0.0879 | 0.224 | 0.143 | 0.0896 | 0.0812 | 0.247 | 0.117 | 0.0955 | 0.104 | 0.239 | 0.106 | 0.0848 | 0.109 |
| NCI-H1355 | 0.755 | 0.487 | 0.133 | 0.141 | 1.04 | 0.976 | 0.449 | 0.116 | 0.425 | 0.311 | 0.154 | 0.137 | 0.502 | 0.319 | 0.183 | 0.184 | 0.979 | 0.681 | 0.142 | 0.138 |
| NCI-H1395 | 0.469 | 0.279 | 0.264 | 0.32 | 0.505 | 0.231 | 0.213 | 0.26 | 0.596 | 0.311 | 0.248 | 0.248 | 0.453 | 0.306 | 0.301 | 0.248 | 0.506 | 0.314 | 0.292 | 0.276 |
| NCI-H1437 | 0.418 | 0.159 | 0.138 | 0.158 | 0.343 | 0.149 | 0.158 | 0.12 | 0.245 | 0.203 | 0.117 | 0.119 | 0.279 | 0.187 | 0.17 | 0.13 | 0.637 | 0.115 | 0.0859 | 0.0933 |
| NCI-H1650 | 0.861 | 0.431 | 0.127 | 0.0993 | 0.366 | 0.335 | 0.152 | 0.0974 | 0.343 | 0.0912 | 0.115 | 0.0963 | 0.262 | 0.139 | 0.151 | 0.126 | 0.648 | 0.15 | 0.169 | 0.143 |
